US9789111B2, “Casein kinase 1δ (CK 1δ) inhibitors” (Electrophoretics Limited, priority 2010, dated 2017)

Assays:
ABL2/ARG = ABL2/ARG (Homo sapiens, UniProt P42684); assay: kinase inhibition assay panel; format: biochemical
Experimental: (§1) Base Reaction buffer; 20 mM Hepes (pH 7.5), 10 mM MgCl2, 1 mM EGTA, 0.02% Brij35, 0.02 mg/ml BSA, 0.1 mM Na3VO4, 2 mM DTT, 1% DMSO
(§2) It should be noted that required cofactors are added individually to each kinase reaction.
(§3) • 1. Prepare indicated substrate in freshly prepared Base Reaction Buffer as described above • 2. Deliver any required cofactors to the substrate solution • 3. Deliver indicated kinase into the substrate solution and gently mix • 4. Deliver compounds in DMSO into the kinase reaction mixture • 5. Deliver ^33P-ATP (specific activity 0.01 μCi/μl final) into the reaction mixture to initiate the reaction • 6. Incubate kinase reaction for 120 min. at room temperature • 7. Reactions are spotted onto P81 ion exchange paper (Whatman #3698-915) • 8. Wash filters extensively in 0.75% Phosphoric acid Kinase Information: • CK1δ—Genbank Accession # NP_620693 • Recombinant human full-length construct. GST-tagged, expressed in insect cells. • Final concentration in assay=4 nM • Substrate: CK1tide • Substrate sequence: [KRRRAL[pS]VASLPGL] • Final substrate concentration in assay=20 μM • It should be noted that no additional cofactors are added to the reaction mixture.

CDK5/p25 = CDK5/p25 (Homo sapiens, UniProt Q00535); assay: kinase inhibition assay panel; format: biochemical
Sequence of CDK5/p25 (Q00535 whole entry, species assumed): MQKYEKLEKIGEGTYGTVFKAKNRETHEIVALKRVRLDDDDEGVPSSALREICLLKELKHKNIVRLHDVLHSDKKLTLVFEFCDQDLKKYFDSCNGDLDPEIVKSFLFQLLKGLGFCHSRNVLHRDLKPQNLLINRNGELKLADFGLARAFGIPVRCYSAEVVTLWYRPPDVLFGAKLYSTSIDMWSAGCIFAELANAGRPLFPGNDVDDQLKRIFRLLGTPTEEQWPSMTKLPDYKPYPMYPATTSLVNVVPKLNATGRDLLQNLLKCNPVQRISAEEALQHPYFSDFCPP
Sequence of CDK5/p25 (Q15078 99-307 partner limits assumed, species assumed): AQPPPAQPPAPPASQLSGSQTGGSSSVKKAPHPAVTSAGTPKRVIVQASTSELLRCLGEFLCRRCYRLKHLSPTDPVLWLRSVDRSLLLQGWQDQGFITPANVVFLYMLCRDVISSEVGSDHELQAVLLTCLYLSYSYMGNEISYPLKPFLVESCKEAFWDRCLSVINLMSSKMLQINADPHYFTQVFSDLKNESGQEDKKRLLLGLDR
Experimental: as §1, §2, §3

GSK3b = GSK3b (Homo sapiens, UniProt P49841); assay: kinase inhibition assay panel; format: biochemical
Sequence of GSK3b (P49841 whole entry, species assumed): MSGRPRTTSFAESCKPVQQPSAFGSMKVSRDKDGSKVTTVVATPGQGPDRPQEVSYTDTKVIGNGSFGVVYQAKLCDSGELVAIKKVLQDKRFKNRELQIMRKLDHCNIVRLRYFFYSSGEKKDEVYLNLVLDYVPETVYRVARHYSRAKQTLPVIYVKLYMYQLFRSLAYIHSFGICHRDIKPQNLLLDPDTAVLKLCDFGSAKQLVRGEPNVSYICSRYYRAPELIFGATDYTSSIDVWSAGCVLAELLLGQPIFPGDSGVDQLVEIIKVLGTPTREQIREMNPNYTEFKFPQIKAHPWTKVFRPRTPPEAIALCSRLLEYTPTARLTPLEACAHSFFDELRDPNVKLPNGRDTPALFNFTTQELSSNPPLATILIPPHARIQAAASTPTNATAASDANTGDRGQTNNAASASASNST
Experimental: as §1, §2, §3

HGK/MAP4K4 = HGK/MAP4K4 (Homo sapiens, UniProt O95819); assay: kinase inhibition assay panel; format: biochemical
Sequence of HGK/MAP4K4 (O95819 whole entry): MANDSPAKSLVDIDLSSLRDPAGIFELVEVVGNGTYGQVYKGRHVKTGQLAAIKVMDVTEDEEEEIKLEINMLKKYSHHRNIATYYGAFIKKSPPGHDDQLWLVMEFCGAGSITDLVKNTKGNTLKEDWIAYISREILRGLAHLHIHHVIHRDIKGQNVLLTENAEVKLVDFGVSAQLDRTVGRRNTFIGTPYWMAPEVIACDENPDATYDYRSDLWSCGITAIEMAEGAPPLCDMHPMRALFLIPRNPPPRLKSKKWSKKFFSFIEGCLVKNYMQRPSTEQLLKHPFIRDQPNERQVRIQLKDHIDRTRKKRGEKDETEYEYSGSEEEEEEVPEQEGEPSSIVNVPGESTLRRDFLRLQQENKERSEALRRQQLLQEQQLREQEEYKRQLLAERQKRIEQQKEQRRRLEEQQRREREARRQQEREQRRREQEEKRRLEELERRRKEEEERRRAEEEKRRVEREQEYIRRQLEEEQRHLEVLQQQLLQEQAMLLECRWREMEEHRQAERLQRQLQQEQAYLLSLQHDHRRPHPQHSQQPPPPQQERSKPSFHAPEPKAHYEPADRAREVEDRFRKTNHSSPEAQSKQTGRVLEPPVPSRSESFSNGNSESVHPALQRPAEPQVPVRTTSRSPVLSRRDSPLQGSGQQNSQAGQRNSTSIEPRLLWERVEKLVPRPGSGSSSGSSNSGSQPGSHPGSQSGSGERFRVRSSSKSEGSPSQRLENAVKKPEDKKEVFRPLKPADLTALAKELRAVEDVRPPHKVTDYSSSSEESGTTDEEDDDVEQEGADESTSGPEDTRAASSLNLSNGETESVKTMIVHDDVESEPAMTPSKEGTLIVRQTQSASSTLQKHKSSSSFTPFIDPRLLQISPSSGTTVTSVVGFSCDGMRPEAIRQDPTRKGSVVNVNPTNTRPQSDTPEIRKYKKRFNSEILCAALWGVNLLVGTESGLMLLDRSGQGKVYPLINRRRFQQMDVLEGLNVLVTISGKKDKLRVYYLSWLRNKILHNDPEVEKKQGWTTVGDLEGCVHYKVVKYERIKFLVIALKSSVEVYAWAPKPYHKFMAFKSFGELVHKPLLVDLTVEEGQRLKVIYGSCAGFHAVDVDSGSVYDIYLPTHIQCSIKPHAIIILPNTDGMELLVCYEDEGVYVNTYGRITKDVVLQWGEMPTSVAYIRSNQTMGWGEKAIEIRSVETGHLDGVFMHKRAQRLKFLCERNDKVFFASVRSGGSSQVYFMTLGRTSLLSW
Experimental: as §1, §2, §3

JNK2 = JNK2 (Homo sapiens, UniProt P45984); assay: kinase inhibition assay panel; format: biochemical
Experimental: as §1, §2, §3

KDR/VEGFR2 = KDR/VEGFR2 (Homo sapiens, UniProt P35968); assay: kinase inhibition assay panel; format: biochemical
Experimental: as §1, §2, §3

LCK = LCK (Homo sapiens, UniProt P06239); assay: kinase inhibition assay panel; format: biochemical
Experimental: as §1, §2, §3

MSK1/RPS6KA5 = MSK1/RPS6KA5 (Homo sapiens, UniProt O75582); assay: kinase inhibition assay panel; format: biochemical
Experimental: as §1, §2, §3

PDK1/PDPK1 = target: T1, PDK1/PDPK1 (Homo sapiens, UniProt O15530); assay: kinase inhibition assay panel; format: biochemical
T1 sequence (O15530 1-556): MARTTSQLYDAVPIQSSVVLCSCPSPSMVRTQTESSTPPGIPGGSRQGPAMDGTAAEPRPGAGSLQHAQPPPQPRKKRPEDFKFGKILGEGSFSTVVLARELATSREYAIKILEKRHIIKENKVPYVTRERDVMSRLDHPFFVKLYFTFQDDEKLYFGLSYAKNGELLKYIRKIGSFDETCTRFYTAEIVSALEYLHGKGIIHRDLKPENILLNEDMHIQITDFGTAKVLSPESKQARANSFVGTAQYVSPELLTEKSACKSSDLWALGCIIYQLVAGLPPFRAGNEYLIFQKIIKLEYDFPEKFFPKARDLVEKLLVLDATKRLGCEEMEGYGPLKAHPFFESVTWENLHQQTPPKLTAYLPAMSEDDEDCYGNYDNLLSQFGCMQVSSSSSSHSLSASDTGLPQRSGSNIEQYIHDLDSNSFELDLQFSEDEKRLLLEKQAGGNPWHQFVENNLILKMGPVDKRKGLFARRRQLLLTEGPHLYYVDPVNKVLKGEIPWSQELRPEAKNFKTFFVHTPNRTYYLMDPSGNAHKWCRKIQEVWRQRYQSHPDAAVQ
Experimental: as §1, §2, §3

PIM3 = PIM3 (Homo sapiens, UniProt Q86V86); assay: kinase inhibition assay panel; format: biochemical
Experimental: as §1, §2, §3

PKCa = PKCa (Homo sapiens, UniProt P17252); assay: kinase inhibition assay panel; format: biochemical
Experimental: as §1, §2, §3

PKCb2 = PKCb2 (Homo sapiens, UniProt P05771); assay: kinase inhibition assay panel; format: biochemical
Experimental: as §1, §2, §3

ROCK1 = ROCK1 (Homo sapiens, UniProt Q13464); assay: kinase inhibition assay panel; format: biochemical
Sequence of ROCK1 (Q13464 whole entry, species assumed): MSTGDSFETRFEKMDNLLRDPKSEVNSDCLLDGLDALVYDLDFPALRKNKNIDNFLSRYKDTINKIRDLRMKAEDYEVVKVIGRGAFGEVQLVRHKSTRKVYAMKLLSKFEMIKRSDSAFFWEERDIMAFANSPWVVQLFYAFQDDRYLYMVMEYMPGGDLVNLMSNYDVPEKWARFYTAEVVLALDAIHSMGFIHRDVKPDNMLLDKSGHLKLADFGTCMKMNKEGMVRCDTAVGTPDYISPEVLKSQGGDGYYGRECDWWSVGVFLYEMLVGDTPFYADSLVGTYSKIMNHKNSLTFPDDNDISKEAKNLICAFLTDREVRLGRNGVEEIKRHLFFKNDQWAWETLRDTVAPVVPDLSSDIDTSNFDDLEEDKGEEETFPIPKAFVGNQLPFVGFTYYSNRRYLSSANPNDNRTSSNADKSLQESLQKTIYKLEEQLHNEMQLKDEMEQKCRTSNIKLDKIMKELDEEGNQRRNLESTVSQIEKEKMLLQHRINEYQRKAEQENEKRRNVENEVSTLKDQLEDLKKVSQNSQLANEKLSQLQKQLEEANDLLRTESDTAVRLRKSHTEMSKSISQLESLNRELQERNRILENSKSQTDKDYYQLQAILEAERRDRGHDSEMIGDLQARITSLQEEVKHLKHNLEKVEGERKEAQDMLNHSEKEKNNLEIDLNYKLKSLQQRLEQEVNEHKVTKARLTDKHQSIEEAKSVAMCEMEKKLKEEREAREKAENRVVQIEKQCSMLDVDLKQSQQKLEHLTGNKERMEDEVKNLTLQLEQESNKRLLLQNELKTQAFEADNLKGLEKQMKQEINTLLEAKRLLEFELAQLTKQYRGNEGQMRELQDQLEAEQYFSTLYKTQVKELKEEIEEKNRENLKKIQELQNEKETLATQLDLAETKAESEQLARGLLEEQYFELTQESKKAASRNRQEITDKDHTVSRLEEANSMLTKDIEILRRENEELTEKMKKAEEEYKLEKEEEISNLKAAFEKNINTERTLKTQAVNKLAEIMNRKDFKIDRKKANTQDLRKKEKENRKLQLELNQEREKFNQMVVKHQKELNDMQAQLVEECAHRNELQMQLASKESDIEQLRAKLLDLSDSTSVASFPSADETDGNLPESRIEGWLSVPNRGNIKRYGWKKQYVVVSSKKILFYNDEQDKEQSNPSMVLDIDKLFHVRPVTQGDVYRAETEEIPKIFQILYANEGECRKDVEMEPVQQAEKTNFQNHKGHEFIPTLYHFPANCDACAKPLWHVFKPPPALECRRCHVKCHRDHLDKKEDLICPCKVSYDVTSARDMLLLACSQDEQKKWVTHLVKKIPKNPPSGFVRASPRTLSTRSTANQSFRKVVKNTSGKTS
Experimental: as §1, §2, §3

TNIK = TNIK (Homo sapiens, UniProt Q9UKE5); assay: kinase inhibition assay panel; format: biochemical
Experimental: as §1, §2, §3

c-SRC = c-SRC (Homo sapiens, UniProt P12931); assay: kinase inhibition assay panel; format: biochemical
Experimental: as §1, §2, §3

[1] = tested on: total Tau in SH-SY5Y-TMHT cells; assay: Western Blot of total Tau; format: cell-based, human; details: 10 μM
Experimental: SH-SY5Y-TMHT cells are kept in culture medium (DMEM medium, 10% FCS, 1% NEAA, 1% L-Glutamine, 100 μg/ml Gentamycin, 300 μg/ml Geneticin G-418) for 2 days until 80-90% confluency. Cells are then differentiated in culture medium supplemented with 10 μM retinoic acid (RA) for 7 days changing medium every 2 to 3 days. Differentiated cells are seeded onto 6-well plates and 96-well plates at a cell density of 1.25×10^6 and 8×10^5 cells per well, respectively. On day 8 post-differentiation, the test compounds, reference compounds and vehicle control were added to the culture medium. After 6 h of compound exposure one plate of cells is subjected to a MTT assay to evaluate the effect of test and reference items on cell viability. Remaining wells are washed once with cold PBS and harvested in 300 μl RIPA-Buffer [50 mM Tris pH 7.4, 1% Nonident P40, 0.25% Na-deoxy-cholate, 150 mM NaCl, 1 mM EDTA, 1 μM NaF, 1 μM Na-ortho-vanadate, 80 mM Glycerophosphate, supplemented with freshly added protease (Calbiochem) and phosphatase (Sigma) inhibitor cocktail]. The cell suspension is transferred into a 1.5 ml tube and additionally lysed by sonication on ice. An aliquot of 20 μl is taken for the determination of the protein concentration (BCA assay). Subsequently, the lysates are snap frozen and stored at −80° C. until shipment.
Lysates of treated cells were prepared in Laemmli buffer and 10 μg loaded into each lane of a 10% Nu-PAGE gel (Invitrogen, UK). Samples were run until the coomassie blue dye fromt was within 1 cm of the bottom of the gel. The separated proteins were transferred onto nitrocellulose and blots developed using antibodies specific for total tau (Polyclonal Rabbit Anti-Human Tau, Dako, UK (cat # A0024)) and phopho-Threonine 231 (Tau (Phospho-Thr231) Antibody, Signalway Antibody, USA (cat # 11110)) respectively. In each case the bound antibody was detected using ECL Rabbit IgG, HRP-Linked (from donkey) (GE Healthcare, UK (cat # NA934))

Sequence of ABL2/ARG (P42684 whole entry): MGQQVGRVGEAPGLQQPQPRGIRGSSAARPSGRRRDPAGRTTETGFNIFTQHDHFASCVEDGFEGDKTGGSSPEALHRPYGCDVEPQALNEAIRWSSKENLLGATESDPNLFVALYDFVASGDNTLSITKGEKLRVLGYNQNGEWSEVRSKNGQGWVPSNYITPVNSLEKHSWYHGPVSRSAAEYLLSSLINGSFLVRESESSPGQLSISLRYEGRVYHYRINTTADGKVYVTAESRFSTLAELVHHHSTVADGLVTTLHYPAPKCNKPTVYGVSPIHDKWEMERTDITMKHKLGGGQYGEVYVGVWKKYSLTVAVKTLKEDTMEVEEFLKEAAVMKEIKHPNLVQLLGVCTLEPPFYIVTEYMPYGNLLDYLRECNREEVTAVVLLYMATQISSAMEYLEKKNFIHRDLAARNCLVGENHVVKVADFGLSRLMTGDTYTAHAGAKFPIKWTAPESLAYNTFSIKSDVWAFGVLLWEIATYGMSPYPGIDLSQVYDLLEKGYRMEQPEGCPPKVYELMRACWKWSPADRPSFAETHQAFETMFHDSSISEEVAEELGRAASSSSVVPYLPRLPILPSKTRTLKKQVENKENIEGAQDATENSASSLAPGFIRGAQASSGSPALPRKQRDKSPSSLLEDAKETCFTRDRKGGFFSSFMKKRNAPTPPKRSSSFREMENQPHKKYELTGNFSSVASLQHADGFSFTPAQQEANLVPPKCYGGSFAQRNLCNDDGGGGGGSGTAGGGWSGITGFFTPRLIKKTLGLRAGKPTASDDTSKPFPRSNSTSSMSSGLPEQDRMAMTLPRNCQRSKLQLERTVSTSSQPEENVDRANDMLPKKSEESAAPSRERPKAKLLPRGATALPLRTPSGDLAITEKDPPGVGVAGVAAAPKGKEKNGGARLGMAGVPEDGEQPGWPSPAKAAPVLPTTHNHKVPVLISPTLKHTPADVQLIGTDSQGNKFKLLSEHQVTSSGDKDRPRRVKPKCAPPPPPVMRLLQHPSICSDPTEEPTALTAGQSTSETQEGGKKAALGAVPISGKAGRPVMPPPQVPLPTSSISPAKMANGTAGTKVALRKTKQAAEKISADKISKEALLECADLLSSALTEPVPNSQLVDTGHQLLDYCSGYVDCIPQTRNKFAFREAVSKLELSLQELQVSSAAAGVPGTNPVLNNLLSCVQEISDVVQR

| inhibition of ABL2/ARG (ABL2/ARG) | inhibition of CDK5/p25 (CDK5/p25) | inhibition of GSK3b (GSK3b) | inhibition of HGK/MAP4K4 (HGK/MAP4K4) | inhibition of JNK2 (JNK2) | inhibition of KDR/VEGFR2 (KDR/VEGFR2) | inhibition of LCK (LCK) | inhibition of MSK1/RPS6KA5 (MSK1/RPS6KA5) | inhibition of PDK1/PDPK1 (PDK1/PDPK1) | inhibition of PIM3 (PIM3) | inhibition of PKCa (PKCa) | inhibition of PKCb2 (PKCb2) | inhibition of ROCK1 (ROCK1) | inhibition of TNIK (TNIK) | inhibition of c-SRC (c-SRC) | Structure (SMILES) | detectable levels of total Tau [1] |
| --- | --- | --- | --- | --- | --- | --- | --- | --- | --- | --- | --- | --- | --- | --- | --- | --- |
| lower than 40% | lower than 40% | lower than 40% | lower than 40% | lower than 40% | lower than 40% | lower than 40% | lower than 40% | lower than 40% | lower than 40% | lower than 40% | lower than 40% | lower than 40% | lower than 40% | lower than 40% | Nc1ncc(-c2nc3ccccc3o2)c(-c2ccncc2)n1 [Compound 324, 5-(1,3-benzoxazol-2-yl)-4-(pyridin-4-yl)pyrimidin-2-amine] | no significant difference |
| lower than 40% | lower than 40% | lower than 40% | lower than 40% | lower than 40% | lower than 40% | lower than 40% | lower than 40% | lower than 40% | lower than 40% | lower than 40% | lower than 40% | lower than 40% | lower than 40% | lower than 40% | NC(=O)c1c(N)c(C(=O)c2ccc(F)cc2)n2ccccc12 [Compound 987, 2-amino-3-[(4-fluorophenyl)carbonyl]indolizine-1-carboxamide] | no significant difference |
